Test results as given in patent publication US8822526B2, “Synergistic pharmaceutical combination for the treatment of cancer” (Piramal Enterprises Limited, priority 2007, dated 2014).

Tests used:
[1] = test system: human non-small cell lung carcinoma H-460 cells; test: In vitro cytotoxicity assay (MTS); settings: for % Cytotoxicity: then complete medium 45 hours
Protocol: The cytotoxicity assay used was MTS (3-(4,5-dimethylthiazol-2-yl)-5-(3-carboxymethoxyphenyl)-2-(4-sulfophenyl)-2H-tetrazolium, inner salt) assay. The human non-small cell lung carcinoma H-460 cells were seeded at a density of 1500 cells/well in 180 μL of culture medium in 96-well plate and incubated overnight to allow the cells to adhere. Varying concentrations of the drugs contained in the combination were added to the wells and incubated for an appropriate period of time in humidified 5% CO2 incubator at 37° C. in case of a single drug exposure. […] Control wells were treated with a vehicle. At the end of the incubation period, the medium was removed from the wells and 20 μL of MTS (2 mg/mL in phosphate buffer saline, pH 6-6.5 and filter sterilized) and 1 μL of phenazine methosulfate (PMS, 3 mM in phosphate buffered saline, pH 7.3 and filter sterilized) was added to each well and the total volume was adjusted to 200 μL with complete medium. The plate was incubated for 2-4 hours in humidified 5% CO2 incubator at 37° C.
(§1) After completion of the drugs treatment i.e. at the end of 96 hours the plates were processed for MTS viability assay and the percent cytotoxicity was calculated as compared to control.
as §1
(§2) The human non-small cell lung carcinoma H-460 cells were seeded at a density of 1500 cells/well. […] After completion of the drugs treatment i.e. at the end of 120 hours the plates were processed for MTS viability assay and the percent cytotoxicity was calculated as compared to control.
as §2
The human non-small cell lung carcinoma H-460 cells were seeded at a density of 1500 cells/well. […] After completion of the drugs treatment i.e. at the end of 120 hours, the plates were processed for MTS viability assay and the percent cytotoxicity was calculated as compared to control.
(§3) After completion of the drugs treatment i.e. at the end of 48 hours the plates were processed for MTS viability assay and the percent cytotoxicity was calculated as compared to control.
The plates were processed for MTS viability assay and the percent cytotoxicity was calculated as compared to control.
as §3
The human non-small cell lung carcinoma H-460 cells were seeded at a density of 1500 cells/well. As per Table 16A the cells were first treated with either of the drugs alone i.e. with doxorubicin or flavopiridol alone. Doxorubicin treatment was for the first 24 hours followed by complete medium for 96 hours while in case of flavopiridol, the first 24 hours was in complete medium followed by flavopiridol for the next 96 hours. […] After completion of the drugs treatment i.e. at the end of 120 hours the plates were processed for MTS viability assay and the percent cytotoxicity was calculated as compared to control.
As per Table 16B the cells were first treated with either of the drugs alone i.e. with doxorubicin or flavopiridol alone. Flavopiridol treatment was for the first 96 hours followed by complete medium for 24 hours while in case of doxorubicin, the first 96 hours was in complete medium followed by doxorubicin for 24 hours. […] After completion of the drugs treatment i.e. at the end of 120 hours, the plates were processed for MTS viability assay and the percent cytotoxicity was calculated as compared to control.
The human non-small cell lung carcinoma H-460 cells were seeded at a density of 1500 cells/well.

[2] = test system: human pancreatic (Panc-1) cell line; test: In vitro cytotoxicity assay (MTS); assay type: cell-based; settings: then complete medium 72 hours
[3] = test system: pancreatic cells (Panc-1); test: Analysis of cell cycle distribution and flow cytometry (sub G1 apoptosis); assay type: cell-based, human; settings: FIG. 3: 70 nM gemcitabine alone (24 hours); 300 nM compound A alone (72 hours); combination 70 nM gemcitabine (24 hours) followed by 300 nM compound A (72 hours)

## CC(=O)O[C@H]1C(=O)[C@@]2(C)[C@H]([C@H](OC(=O)c3ccccc3)[C@]3(O)C[C@H](OC(=O)[C@H](O)[C@@H](NC(=O)c4ccccc4)c4ccccc4)C(C)=C1C3(C)C)[C@]1(OC(C)=O)CO[C@@H]1C[C@@H]2O [Paclitaxel]
[1]; Paclitaxel 10 nM first 3 hours, 1500 cells/well
  % Cytotoxicity: 10%

## CC(=O)O[C@@]12CO[C@@H]1C[C@H](O)[C@@]1(C)C(=O)[C@H](O)C3=C(C)[C@@H](OC(=O)[C@H](O)[C@@H](NC(=O)OC(C)(C)C)c4ccccc4)C[C@@](O)([C@@H](OC(=O)c4ccccc4)[C@H]21)C3(C)C [Docetaxel]
[1]; Docetaxel 0.1 nM first 3 hours, 3000 cells/well
  % Cytotoxicity: 0%
[1]; Docetaxel 3 nM first 3 hours, 3000 cells/well
  % Cytotoxicity: 2%

## Nc1ccn([C@@H]2O[C@H](CO)[C@@H](O)C2(F)F)c(=O)n1 [Gemcitabine, 2′-deoxy-2′,2′-difluorocytidine]
[2]; Gemcitabine 30 nM first 24 hours
  % Cytotoxicity: 2%
[2]; Gemcitabine 70 nM first 24 hours
  % Cytotoxicity: 18%
[2]; Gemcitabine 100 nM first 24 hours
  % Cytotoxicity: 38%
[2]; Gemcitabine 200 nM first 24 hours
  % Cytotoxicity: 78%
[3]
  apoptosis (sub G1 phase): 1.7%

## CN1CC[C@H](c2c(O)cc(O)c3c(=O)cc(-c4ccccc4Cl)oc23)[C@H](O)C1 [Flavopiridol]
[1]; H-460 cells, 48 hours treatment
  IC30 concentration after 48 hours treatment: 200 nM
[1]; Homo sapiens, NCI-H460, 48 h, read-out: IC50 concentration after 48 hours treatment, H-460 cells, 48 hours treatment
  IC50: 350 nM
[1]; Homo sapiens, NCI-H460, 120 h, Flavopiridol 200 nM alone for 120 hours
  cytotoxicity at 0.2 µM: 39%
[1]; Homo sapiens, NCI-H460, 120 h, Flavopiridol 350 nM alone for 120 hours
  cytotoxicity at 0.35 µM: 81%
